One test has as its target T1, TrzSMsmeg (Mycolicibacterium smegmatis, UniProt A0QUG4).
T1 construct: gene MSMEG_2198
Type of test: biochemical.

For a further test, the target named is T2, TyzAMtb (Mycobacterium tuberculosis, UniProt P95232).
T2 construct: gene Rv2336
T2 sequence (P95232 1-322): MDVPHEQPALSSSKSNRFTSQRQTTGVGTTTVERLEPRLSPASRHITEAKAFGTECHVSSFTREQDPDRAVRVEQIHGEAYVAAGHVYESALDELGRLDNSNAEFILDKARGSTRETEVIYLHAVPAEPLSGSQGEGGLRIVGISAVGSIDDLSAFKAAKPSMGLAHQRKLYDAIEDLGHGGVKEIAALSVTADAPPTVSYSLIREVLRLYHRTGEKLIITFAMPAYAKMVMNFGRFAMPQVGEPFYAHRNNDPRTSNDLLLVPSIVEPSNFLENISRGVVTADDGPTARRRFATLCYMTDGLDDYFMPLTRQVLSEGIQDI

T1 sequence (A0QUG4 1-723): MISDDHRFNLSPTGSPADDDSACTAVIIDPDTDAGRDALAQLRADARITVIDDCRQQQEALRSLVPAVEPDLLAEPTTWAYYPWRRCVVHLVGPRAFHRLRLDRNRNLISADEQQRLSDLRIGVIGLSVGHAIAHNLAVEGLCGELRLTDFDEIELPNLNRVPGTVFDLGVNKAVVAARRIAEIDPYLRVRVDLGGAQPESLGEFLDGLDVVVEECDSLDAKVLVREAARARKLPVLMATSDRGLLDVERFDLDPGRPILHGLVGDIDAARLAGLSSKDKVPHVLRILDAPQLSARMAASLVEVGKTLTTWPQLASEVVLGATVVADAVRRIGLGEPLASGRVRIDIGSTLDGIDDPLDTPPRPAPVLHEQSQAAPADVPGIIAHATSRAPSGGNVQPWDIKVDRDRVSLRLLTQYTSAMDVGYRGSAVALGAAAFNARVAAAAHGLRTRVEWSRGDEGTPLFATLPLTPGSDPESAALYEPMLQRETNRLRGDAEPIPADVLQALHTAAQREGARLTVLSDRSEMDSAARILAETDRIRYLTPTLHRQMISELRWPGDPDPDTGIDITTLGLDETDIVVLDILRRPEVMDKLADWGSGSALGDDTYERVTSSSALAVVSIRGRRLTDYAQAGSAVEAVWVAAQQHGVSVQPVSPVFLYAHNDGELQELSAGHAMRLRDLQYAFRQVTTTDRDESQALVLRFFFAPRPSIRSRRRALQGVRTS

For the compound `Nc1ncnc2c1ncn2[C@@H]1O[C@H](COP(=O)(O)OP(=O)(O)OP(=O)(O)O)[C@@H](O)[C@H]1O` [ATP], on TrzSMsmeg, the “LC-QTOF product detection, coupled with TrzAMtb” value is given as “only the N-acyl tryptophan was observed when ATP was omitted from the reaction”.
In the case of `CCCC(=O)N[C@@H](Cc1c[nH]c2ccccc12)C(=O)O` [C4:0-tryptophan], the “LC-QTOF product detection, coupled with TrzAMtb” value on TrzSMsmeg is “we detected significant amounts of C4:0-tryptophan, produced by TrzAMtb, and C4:0-tryptazolone”.
In the case of `CCCCCCCCCCCC(=O)SCCNC(=O)CCNC(=O)[C@H](O)C(C)(C)COP(=O)(O)OP(=O)(O)OC[C@H]1O[C@@H](n2cnc3c(N)ncnc32)[C@H](O)[C@@H]1OP(=O)(O)O` [C12:0-CoA], the “LC-QTOF endpoint product detection” value on TyzAMtb is “we detected substantial amounts of C12:0-Tyr, C12:0-tyrazolone”.
